In patent publication US20190053495A1, “POLYMERIC TOPICAL ANTISEPTIC COMPOUND AND METHOD OF USE” (priority 2017, published 2019):

Legend:
[1] = Film thickness of skin scaffold by Dual Polarization Interferometry; assay type: physicochemical
Description: Film thickness of skin scaffold of polymer 1-Octadecanaminium NN Dimethyl (3 Trihydroxysilyl)propyl chloride polymer with Dual Polarization interferometry.

[2] = 2 g/kg applied to 10% of shaven skin, ten test animals, Study Day 1; cited from earlier work

| MASS ([1]; 40 seconds post injection) [ngmm^−2] | THICKNESS ([1]; 40 seconds post injection) [nm] | MASS ([1]; 10 minutes post injection) [ngmm^−2] | THICKNESS ([1]; 10 minutes post injection) [nm] | Molecule | Skin reaction at the application site [2] |
| --- | --- | --- | --- | --- | --- |
| 3.83 | 41.31 | 3.76 | 33.51 | CCCCCCCCCCCCCCCCCC[N+](C)(C)CCC[Si](OC)(OC)OC.[Cl-] [ODTMSPC, 1-Octadecanaminium, N,N, Dimethyl-N-[(3-trimethoxysilyl)propyl] chloride] |  |
|  |  |  |  | alkyldimethylbenzylammonium chloride [Benzalkonium chloride] | all test animals exhibit erythema, and edema at the application site |
